Source: patent US8835425B2, “Use of selective GABA A α5 negative allosteric modulators for the treatment of central nervous system conditions” (Hoffmann-La Roche Inc., priority 2010, dated 2014)
Like-named read-outs stand apart in the source and are kept apart here.

Legend:
Ts65Dn and control mice [1] = experiment: Spontaneous activity: actimetry; format: in vivo; conditions: 20 mg/kg p.o. chronic, vs vehicle
Method: (§1) For mice studies, active pharmaceutical compounds of present invention were formulated in chocolate-milk (Puleva, Barcelona, Spain). Active pharmaceutical compounds of present invention or vehicle were administered p.o. at a dose of 20 mg/kg for six weeks. Their administration was prolonged during the 30 days of the behavioral assessment.
In this test the circadian variation of the animals' spontaneous locomotor activity during a complete light-dark cycle of 24 hours was evaluated. The apparatus is a device (Acti-system II, Panlab, Barcelona) that detects the changes produced in a magnetic field by the movement of the mice. It registers the movements of animals during a continuous 24 hour cycle (12 hours of light and 12 hours of darkness).

Control mice (B16;129F1) = experiment: Contextual fear conditioning; format: in vivo
Method: Control mice (B16;129F1) were trained with a contextual fear-conditioning protocol using either one trial per day for one day (FIG. 20) or two consecutive days (FIG. 21). On the training day, 30 minutes after i.p. injection of 8581 or vehicle, mice were placed in training chamber. A foot shock (1 s, 0.4 mA) was delivered 40 s after placement. Conditioned response (percentage freezing time of the mice) was recorded 24 h after training by using automated procedures. Average freezing levels during the first 30 s of each training day and 24 hr after the last training trial were plotted.

human GABA A α5β3γ2 = human GABA A α5β3γ2 (Homo sapiens, UniProt P18507+P31644); experiment: [3H]flumazenil competition binding, HEK293 cells expressing human α5β3γ2; set-up: expressed in transfected cells; host or cells: HEK293
Ts65Dn and control mice [2] = experiment: Exploratory activity: hole board; format: in vivo; conditions: 20 mg/kg p.o. chronic; for ABA index / Crossings / Number of Head-dippings / Rearings / Time exploring holes: hole board
Method: as §1
The hole board is a wooden box (32×32×30 cm) with four holes. The floor is divided into nine 10 cm squares. In a single 5 minute trial the number of explorations, the time spent exploring each hole, and overall activity in the apparatus were measured. A repetition index was also calculated (exploration of holes previously explored) as a function of the number of ABA alternations.

Ts65Dn and control mice [3] = experiment: Sensorimotor test battery; format: in vivo; conditions: 20 mg/kg p.o. chronic; for Auditory startle / Equilibrium aluminium bar / Equilibrium wooden bar / Grip strength / Prehensile reflex / Righting reflex / Traction capacity / Vision: mean score; for effect on sensorimotor abilities: Ts65Dn or control mice
Method: as §1
A battery of sensorimotor tests was performed following the procedure described by Rueda N et al. [Neurosci Leu (2008) 433(1):22-27]. In the visual placing reflex test, cerebellar and vestibular functions were evaluated. […] The response of forepaw extension was scored on a 0-4 scale [4: animal extends the forepaws when placed at the highest height; 3: forepaws extended before touching the surface with vibrissae; 2: forepaws extended after vibrissae touched the surface; 1: forepaws extended after the nose touched the surface; 0: no extension].
To evaluate auditory sensitivity, the startle response to a sudden auditory stimulus was measured. Mice were placed facing the wall of an unfamiliar cage and the auditory stimulus was generated by clapping together two stainless steel forceps (7 cm long). A score (0-3 points) was assigned based on the magnitude of the response: jumping more than 1 cm (3 points); jumping less than 1 cm (2 points); retracting of the ears (Preyer reflex, 1 point); or no response (0 points).
The vibrissa placing reflex was analyzed by noting the reflective reaction to touching the vibrissae with a cotton stick. In three consecutive trials, a score of 1 was assigned to animals that touched the stimulated vibrissae with an ipsilateral paw, and 0 if there was no response. Grip strength was assessed by quantifying the resistance to being separated from a lid of aluminum bars (2 mm), when dragged by the tail (0: no resistance, total loss of grip strength; 1: slight; 2: moderate; 3: active; 4: extremely active resistance, normal grip strength).
In order to evaluate equilibrium, four 20-s trials of balance were performed on an elevated (40 cm high), horizontal (50 cm long) rod. Trials 1 and 2 were performed on a flat wooden rod (9 mm wide); trials 3 and 4 were performed on a cylindrical aluminum rod (1 cm diameter). In each trial, the animals were placed in a marked central zone (10 cm) on the elevated rod. A score of 0 was given if the animal fell within 20 s, 1 if it stayed within the central zone for >20 s, 2 if it left the central zone, and 3 if it reached one of the ends of the bar.
Prehensile reflex (three 5-s trials) was measured as the ability of the animal to remain suspended by the forepaws by grasping an elevated horizontal wire (2 mm in diameter). The maximum possible score of 3 was achieved when the animal remained suspended by the forepaws in all three trials (one point per trial). Traction capacity was scored at the same time by assessing the number of hind limbs that the animal raised to reach the wire (0: none; 1: one limb; 2: two limbs).

human GABA A α3β3γ2 = human GABA A α3β3γ2 (Homo sapiens, UniProt P18507+P34903); experiment: [3H]flumazenil competition binding, HEK293 cells expressing human α3β3γ2; set-up: expressed in transfected cells; host or cells: HEK293; conditions: for hKi α3/hKi α5: binding selectivity ratio
Ts65Dn and control mice [4] = experiment: Open field; format: in vivo; conditions: mice of either genotype; for horizontal or vertical activity in open field: 20 mg/kg p.o. chronic; for anxiogenic effect (activity in the center of the open field): chronic administration
Method: as §1
Exploratory behavior and anxiety were assessed using a square-shaped open field (55 cm×55 cm, surrounded by a 25-cm-tall fence), divided into 25 equal squares. The animals were placed in the center of the field, and the number of vertical (rearing) activities and horizontal crossings (from square to square, subdivided into center vs. peripheral crossings) were scored in a single 5-min trial.

For `FC(F)c1ncn2c1Cn1ncnc1-c1cc(Br)ccc1-2` [Compound 8581, 3-Bromo-10-difluoromethyl-9H-imidazo[1,5-a][1,2,4]triazolo[1,5-d][1,4]benzodiazepine], the “spontaneous activity in home cage, dark or light phase” value (Ts65Dn and control mice [1]) was “did not differ in the amount of spontaneous activity”, the “contextual conditioning, training for two consecutive days” value (Control mice (B16;129F1); control mice, 1 mg/kg i.p.) was “significant increase in contextual conditioning” and the “freezing at 24 hr after training” value (Control mice (B16;129F1); control mice, 3 mg/kg i.p., one training day) was “significantly enhanced freezing”. For the same compound, the “contextual fear conditioning dose response curve” value (Control mice (B16;129F1); control mice, 0.3, 1.0 and 3.0 mg/kg) was “dose-dependent increase in contextual fear conditioning”, the Ki (human GABA A α5β3γ2) was 4.6 nM and the “hyperactivity (crossings) of Ts65Dn mice in hole board” value (Ts65Dn and control mice [2]; Ts65Dn mice) was “reduced this hyperactivity”. The “normalization of ABA index of Ts65Dn mice” value (Ts65Dn and control mice [2]; Ts65Dn mice) was “normalized”, the ABA index (Ts65Dn and control mice [2]; Ts65Dn mice) was 3.89 and the Crossings (Ts65Dn and control mice [2]; Ts65Dn mice) was 106.11. For the same compound, the “Number of Head-dippings” value (Ts65Dn and control mice [2]; Ts65Dn mice) was 18.22, the Rearings (Ts65Dn and control mice [2]; Ts65Dn mice) was 20.67 and the Time exploring holes (Ts65Dn and control mice [2]; Ts65Dn mice) was 26.28. The ABA index (Ts65Dn and control mice [2]; control mice) was 2.64, the Crossings (Ts65Dn and control mice [2]; control mice) was 73.27 and the “Number of Head-dippings” value (Ts65Dn and control mice [2]; control mice) was 14.82. For the same compound, the Rearings (Ts65Dn and control mice [2]; control mice) was 17.73, the Time exploring holes (Ts65Dn and control mice [2]; control mice) was 30.43 and the “Latency arrival coat hanging” value (Ts65Dn and control mice [3]; Ts65Dn mice) was 35.44. The “Latency to fall aluminium bar” value (Ts65Dn and control mice [3]; Ts65Dn mice) was 12.11, the “Latency to fall wooden bar” value (Ts65Dn and control mice [3]; Ts65Dn mice) was 17.77 and the “Number of crossings coat hanging” value (Ts65Dn and control mice [3]; Ts65Dn mice) was 3.33. It also gave an Auditory startle (Ts65Dn and control mice [3]; Ts65Dn mice) of 1.33, an Equilibrium aluminium bar (Ts65Dn and control mice [3]; Ts65Dn mice) of 1.00 and an Equilibrium wooden bar (Ts65Dn and control mice [3]; Ts65Dn mice) of 3.55. The Grip strength (Ts65Dn and control mice [3]; Ts65Dn mice) was 2.00, the Prehensile reflex (Ts65Dn and control mice [3]; Ts65Dn mice) was 2.67 and the Righting reflex (Ts65Dn and control mice [3]; Ts65Dn mice) was 3.00. The Traction capacity (Ts65Dn and control mice [3]; Ts65Dn mice) was 1.67, the Vision (Ts65Dn and control mice [3]; Ts65Dn mice) was 7.67 and the “effect on sensorimotor abilities” value (Ts65Dn and control mice [3]) was “did not modify any of the sensorimotor abilities tested”. For the same compound, the “Latency arrival coat hanging” value (Ts65Dn and control mice [3]; control mice) was 46.45, the “Latency to fall aluminium bar” value (Ts65Dn and control mice [3]; control mice) was 14.73 and the “Latency to fall wooden bar” value (Ts65Dn and control mice [3]; control mice) was 20.00. The “Number of crossings coat hanging” value (Ts65Dn and control mice [3]; control mice) was 2.64, the Auditory startle (Ts65Dn and control mice [3]; control mice) was 1.00 and the Equilibrium aluminium bar (Ts65Dn and control mice [3]; control mice) was 1.36. For the same compound, the Equilibrium wooden bar (Ts65Dn and control mice [3]; control mice) was 2.8, the Grip strength (Ts65Dn and control mice [3]; control mice) was 1.55 and the Prehensile reflex (Ts65Dn and control mice [3]; control mice) was 2.45. The Righting reflex (Ts65Dn and control mice [3]; control mice) was 3.00, the Traction capacity (Ts65Dn and control mice [3]; control mice) was 1.82 and the Vision (Ts65Dn and control mice [3]; control mice) was 7.64. The Ki (human GABA A α3β3γ2) was 79.6 nM, the “hKi α3/hKi α5” value (human GABA A α3β3γ2) was 17 and the “horizontal or vertical activity in open field” value (Ts65Dn and control mice [4]) was “did not significantly affect”. For the same compound, the “anxiogenic effect (activity in the center of the open field)” value (Ts65Dn and control mice [4]) was “did not produce an anxiogenic effect”.
With `Cc1onc(-c2ccc(F)cc2)c1COc1ccc(C(=O)N2CCS(=O)(=O)CC2)cn1` [Compound R1, (1,1-Dioxo-1,6-thiomorpholin-4-yl)-{6-[3-(4-fluoro-phenyl)-5-methyl-isoxazol-4-ylmethoxy]-pyridin-3-yl}-methanone] the “spontaneous activity in home cage, dark or light phase” value (Ts65Dn and control mice [1]) was “did not differ in the amount of spontaneous activity”, the Ki (human GABA A α5β3γ2; [3H]flumazenil competition, human α5β3γ2, read-out: hKi α5) was 4.7 nM and the “hyperactivity (crossings) of Ts65Dn mice in hole board” value (Ts65Dn and control mice [2]; Ts65Dn mice) was “reduced this hyperactivity”. The ABA index (Ts65Dn and control mice [2]; Ts65Dn mice) was 4.25, the Crossings (Ts65Dn and control mice [2]; Ts65Dn mice) was 93.19 and the “Number of Head-dippings” value (Ts65Dn and control mice [2]; Ts65Dn mice) was 20.50. For the same compound, the Rearings (Ts65Dn and control mice [2]; Ts65Dn mice) was 13.19, the Time exploring holes (Ts65Dn and control mice [2]; Ts65Dn mice) was 37.58 and the ABA index (Ts65Dn and control mice [2]; control mice) was 4.06. For the same compound, the Crossings (Ts65Dn and control mice [2]; control mice) was 72.13, the “Number of Head-dippings” value (Ts65Dn and control mice [2]; control mice) was 16.13 and the Rearings (Ts65Dn and control mice [2]; control mice) was 13.86. The Time exploring holes (Ts65Dn and control mice [2]; control mice) was 28.28, the “Latency arrival coat hanging” value (Ts65Dn and control mice [3]; Ts65Dn mice) was 37.37 and the “Latency to fall aluminium bar” value (Ts65Dn and control mice [3]; Ts65Dn mice) was 13.71. The “Latency to fall wooden bar” value (Ts65Dn and control mice [3]; Ts65Dn mice) was 20.00, the “Number of crossings coat hanging” value (Ts65Dn and control mice [3]; Ts65Dn mice) was 3.19 and the Auditory startle (Ts65Dn and control mice [3]; Ts65Dn mice) was 1.31. For the same compound, the Equilibrium aluminium bar (Ts65Dn and control mice [3]; Ts65Dn mice) was 1.13, the Equilibrium wooden bar (Ts65Dn and control mice [3]; Ts65Dn mice) was 3.19 and the Grip strength (Ts65Dn and control mice [3]; Ts65Dn mice) was 1.75. The Prehensile reflex (Ts65Dn and control mice [3]; Ts65Dn mice) was 2.75, the Righting reflex (Ts65Dn and control mice [3]; Ts65Dn mice) was 3.00 and the Traction capacity (Ts65Dn and control mice [3]; Ts65Dn mice) was 2.50. For the same compound, the Vision (Ts65Dn and control mice [3]; Ts65Dn mice) was 9.19, the “effect on sensorimotor abilities” value (Ts65Dn and control mice [3]) was “did not modify any of the sensorimotor abilities tested” and the “Latency arrival coat hanging” value (Ts65Dn and control mice [3]; control mice) was 30.93. The “Latency to fall aluminium bar” value (Ts65Dn and control mice [3]; control mice) was 11.16, the “Latency to fall wooden bar” value (Ts65Dn and control mice [3]; control mice) was 20.00 and the “Number of crossings coat hanging” value (Ts65Dn and control mice [3]; control mice) was 2.73. It also gave an Auditory startle (Ts65Dn and control mice [3]; control mice) of 1.00, an Equilibrium aluminium bar (Ts65Dn and control mice [3]; control mice) of 0.80 and an Equilibrium wooden bar (Ts65Dn and control mice [3]; control mice) of 2.53. For the same compound, the Grip strength (Ts65Dn and control mice [3]; control mice) was 2.2, the Prehensile reflex (Ts65Dn and control mice [3]; control mice) was 2.53 and the Righting reflex (Ts65Dn and control mice [3]; control mice) was 3.00. For the same compound, the Traction capacity (Ts65Dn and control mice [3]; control mice) was 1.80, the Vision (Ts65Dn and control mice [3]; control mice) was 8.40 and the Ki (human GABA A α3β3γ2) was 489 nM. For the same compound, the “hKi α3/hKi α5” value (human GABA A α3β3γ2) was 104, the “horizontal or vertical activity in open field” value (Ts65Dn and control mice [4]) was “did not significantly affect” and the “anxiogenic effect (activity in the center of the open field)” value (Ts65Dn and control mice [4]) was “did not produce an anxiogenic effect”.
